The record followed here is ChEMBL document CHEMBL1201862, “PubChem BioAssay data set” (2004).

Some test systems named below: Malme-3M; UO-31; MDA-MB-231; HCT-15; MOLT-4; HCC 2998; MDA-N; RPMI-8226; U-251; DU-145; MDA-MB-435; UACC-257; OVCAR-4; HCT-116; T47D; LOX IMVI; SF-539; SK-MEL-2; Hs-578T.
Common to all, as to assay: NCI-60 cell line screen, 48 h

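96-well plates; 48 h exposure; 5 concentrations. Endpoints by linear interpolation between flanking doses. Not reached: highest tested concentration assigned. Here, GI50 denotes the concentration required for 50% inhibition of growth.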 The source made the active and inactive calls. No stated cut-off is given here; in the data, active = GI50 up to about 1.1 µM and inactive = higher.

`C=CC1CCC[N+]1(CC(=O)OCC)Cc1ccccc1` (centres undefined): the GI50 with Malme-3M was > 100 µM (inactive); with UO-31, > 100 µM (inactive); in the test on MDA-MB-231, > 100 µM (inactive); in the test on HCT-15, over 100 µM; in the test on MOLT-4, > 100 µM (inactive); in the test on HCC 2998, > 100 µM (inactive). For the same compound, the GI50 in the test on MDA-N, in the test on RPMI-8226, in the test with U-251, in the test on DU-145, in the test on MDA-MB-435 and in the test on UACC-257 was > 100 µM (inactive) each time. In addition, the GI50 in the test with OVCAR-4, in the test on HCT-116 and with T47D was > 100 µM (inactive) each time.
For `C/C(=N/NC(=S)Nc1ccc(Cl)cc1)c1cccc(/C(C)=N\NC(=S)Nc2ccc(Cl)cc2)n1`, the GI50 in the test with LOX IMVI is 4.58 µM (inactive); in the test with SF-539, 1.48 µM (inactive); with Malme-3M, 2.59 µM (inactive); in the test with UO-31 it was 5.92 µM (inactive); in the test with MDA-MB-231 it was 4.14 µM (inactive); in the test on HCT-15, 2.47 µM. Besides, the GI50 was 2.34 µM (inactive) with MOLT-4; 12.2 µM (inactive) in the test with HCC 2998; 17.1 µM (inactive) in the test with MDA-N; 4.74 µM (inactive) in the test with RPMI-8226; 5.41 µM (inactive) in the test on SK-MEL-2; 6.3 µM (inactive) in the test on U-251. The GI50 with DU-145 is 26.1 µM (inactive); in the test on MDA-MB-435 it was 12.3 µM (inactive); with UACC-257 it was 4.5 µM (inactive); with OVCAR-4, 13.4 µM (inactive); with HCT-116, 2.9 µM (inactive); in the test on T47D it was 30.7 µM (inactive).
For `N#C/C(=C\c1ccccc1)c1nc(-c2cc3ccccc3oc2=O)cs1`, the GI50 is > 100 µM (inactive) in the test on LOX IMVI; 58.5 µM (inactive) in the test with SF-539; > 100 µM (inactive) with Malme-3M; 93.1 µM (inactive) with UO-31; 71.3 µM (inactive) in the test with MDA-MB-231; over 100 µM in the test on HCT-15. In addition, the GI50 with MOLT-4 is > 100 µM (inactive); in the test on HCC 2998, > 100 µM (inactive); in the test on RPMI-8226, > 100 µM (inactive); in the test on SK-MEL-2, > 100 µM (inactive); in the test on U-251, 41.6 µM (inactive); in the test on DU-145, > 100 µM (inactive). The GI50 with MDA-MB-435 is > 100 µM (inactive); with UACC-257, > 100 µM (inactive); with OVCAR-4, 41.5 µM (inactive); with HCT-116, > 100 µM (inactive); in the test on Hs-578T it was 48 µM (inactive); in the test with T47D, > 100 µM (inactive).
With `C=CCON(C(=O)OC(C)(C)C)C(C)(C)C`, the GI50 in the test with LOX IMVI was > 100 µM (inactive); in the test on Malme-3M, > 100 µM (inactive); in the test with UO-31 it was > 100 µM (inactive); in the test with MDA-MB-231 it was > 100 µM (inactive); with HCT-15, over 100 µM; with MOLT-4, > 100 µM (inactive). Also, the GI50 with HCC 2998, in the test on RPMI-8226, in the test on SK-MEL-2, with U-251, in the test on DU-145 and with MDA-MB-435 was > 100 µM (inactive) in each case. Besides, the GI50 is > 100 µM (inactive) in the test with UACC-257; 1.55 µM (inactive) with OVCAR-4; > 100 µM (inactive) with HCT-116; > 100 µM (inactive) in the test on Hs-578T; > 100 µM (inactive) with T47D.
On to `NNC(=O)c1nn[nH]c1SSc1[nH]nnc1C(=O)NN`, for which the GI50 in the test with LOX IMVI was > 100 µM (inactive); in the test with SF-539, > 100 µM (inactive); in the test on UO-31 it was > 100 µM (inactive); in the test with MDA-MB-231 it was > 100 µM (inactive); in the test on HCT-15, over 100 µM; with MOLT-4, > 100 µM (inactive). In addition, the GI50 in the test with HCC 2998, in the test with MDA-N, with SK-MEL-2, in the test on U-251, with DU-145 and in the test with MDA-MB-435 was > 100 µM (inactive) each time. Besides, the GI50 in the test with UACC-257, with OVCAR-4, with HCT-116 and in the test on Hs-578T was > 100 µM (inactive) throughout.
For the compound `O=C(O)CCCn1nnc2c(=O)[nH][nH]c(=O)c21`, the GI50 in the test on LOX IMVI is > 100 µM (inactive); in the test with Malme-3M it was > 100 µM (inactive); with UO-31 it was > 100 µM (inactive); in the test with MDA-MB-231 it was > 100 µM (inactive); in the test with HCT-15 it was over 100 µM; in the test on MOLT-4, > 100 µM (inactive). Also, the GI50 in the test with HCC 2998, with MDA-N, in the test with RPMI-8226, with SK-MEL-2, in the test with U-251 and with DU-145 was > 100 µM (inactive) throughout. Besides, the GI50 in the test with MDA-MB-435, in the test on UACC-257, in the test with OVCAR-4 and in the test on HCT-116 was > 100 µM (inactive) each time.
Consider `CCCC/C=C/C1Cc2ccccc2CN1S(=O)(=O)c1ccc(C)cc1` (centres undefined), for which the GI50 is 8.34 µM (inactive) in the test on LOX IMVI; 15.7 µM (inactive) in the test on SF-539; 6.67 µM (inactive) in the test on Malme-3M; 5.6 µM (inactive) with UO-31; 8.39 µM with HCT-15; 3.97 µM (inactive) with MOLT-4. Besides, the GI50 is 12.1 µM (inactive) with HCC 2998; 2.07 µM (inactive) in the test with RPMI-8226; 14.3 µM (inactive) with SK-MEL-2; 11.2 µM (inactive) in the test with U-251; 4.25 µM (inactive) with UACC-257; 5.85 µM (inactive) with OVCAR-4. Moreover, the GI50 in the test with HCT-116 was 1.6 µM (inactive).
`CCOC(=O)NC(OC)(C(F)(F)F)C(F)(F)F`: the GI50 in the test on LOX IMVI was > 100 µM (inactive); in the test on SF-539, > 100 µM (inactive); in the test with Malme-3M, > 100 µM (inactive); in the test with UO-31, > 100 µM (inactive); with MDA-MB-231, > 100 µM (inactive); in the test on HCT-15 it was over 100 µM. In addition, the GI50 in the test with MOLT-4, in the test with HCC 2998, in the test with MDA-N, in the test on RPMI-8226, with U-251 and in the test with DU-145 was > 100 µM (inactive) throughout. The GI50 in the test with MDA-MB-435, in the test with UACC-257, in the test with OVCAR-4, with HCT-116 and in the test on Hs-578T was > 100 µM (inactive) each time.
For `C/C(=C\c1ccc2c(c1)OCO2)[N+](=O)[O-]`, the GI50 is 0.315 µM (active) with LOX IMVI; 2.91 µM (inactive) with SF-539; 2.84 µM (inactive) with Malme-3M; 1.19 µM (inactive) in the test on UO-31; 6.49 µM (inactive) in the test on MDA-MB-231; 1.96 µM in the test with HCT-15. Further, the GI50 was 0.195 µM (active) with MOLT-4; 3.54 µM (inactive) in the test with HCC 2998; 0.225 µM (active) in the test on RPMI-8226; 2.99 µM (inactive) in the test with SK-MEL-2; 1.79 µM (inactive) in the test with U-251; 2.23 µM (inactive) with DU-145. The GI50 was 2.21 µM (inactive) in the test on MDA-MB-435; 2.43 µM (inactive) in the test on UACC-257; 4.4 µM (inactive) in the test on OVCAR-4; 7.16 µM (inactive) in the test on HCT-116; 5.14 µM (inactive) in the test with Hs-578T; 1.64 µM (inactive) in the test on T47D.
As for `CCOC(=O)c1c(-c2ccccc2)nc2c(OC)nccn12`, the GI50 is > 100 µM (inactive) with LOX IMVI; > 100 µM (inactive) in the test with SF-539; > 100 µM (inactive) with Malme-3M; 20.5 µM (inactive) in the test on UO-31; > 100 µM (inactive) with MDA-MB-231; over 100 µM in the test on HCT-15. Further, the GI50 in the test on MOLT-4 was 14.5 µM (inactive); with HCC 2998, > 100 µM (inactive); with RPMI-8226 it was > 100 µM (inactive); in the test on SK-MEL-2, > 100 µM (inactive); in the test with U-251, > 100 µM (inactive); in the test with DU-145, > 100 µM (inactive). The GI50 with MDA-MB-435 is > 100 µM (inactive); with UACC-257, > 100 µM (inactive); in the test on OVCAR-4, > 100 µM (inactive); in the test with HCT-116 it was > 100 µM (inactive); with Hs-578T, > 100 µM (inactive); in the test on T47D it was 25.4 µM (inactive).
Turning to `CCOc1ncn(-c2ccc(NC(=S)NC3OC(CO)C(O)C(O)C3O)cc2)n1` (centres undefined), the GI50 in the test on LOX IMVI was > 100 µM (inactive); with SF-539, > 100 µM (inactive); in the test on UO-31 it was > 100 µM (inactive); with MDA-MB-231 it was > 100 µM (inactive); in the test on HCT-15 it was over 100 µM; in the test with MOLT-4, > 100 µM (inactive). In addition, the GI50 in the test with HCC 2998, in the test on MDA-N, in the test with RPMI-8226, in the test with U-251, in the test with DU-145 and with MDA-MB-435 was > 100 µM (inactive) throughout. For the same compound, the GI50 in the test with UACC-257, with OVCAR-4, in the test with HCT-116 and with T47D was > 100 µM (inactive) in each case.
`CC(C)c1cc(=O)[nH]c2cc(N)ccc12`: the GI50 was > 100 µM (inactive) in the test on LOX IMVI; > 100 µM (inactive) in the test with SF-539; > 100 µM (inactive) in the test on UO-31; > 100 µM (inactive) in the test on MDA-MB-231; over 100 µM in the test with HCT-15; > 100 µM (inactive) with MOLT-4. Besides, the GI50 in the test with HCC 2998, in the test with MDA-N, with RPMI-8226, in the test on SK-MEL-2, with U-251 and in the test with DU-145 was > 100 µM (inactive) throughout. Moreover, the GI50 in the test on MDA-MB-435, with UACC-257, in the test with OVCAR-4, in the test on HCT-116 and in the test with T47D was > 100 µM (inactive) each time.
